Test results as given in US11008317B2, “Triazolopyridine inhibitors of myeloperoxidase and/or EPX” (priority 2016, dated 2021).

Legend:
myeloperoxidase [1] = molecular target: T1, myeloperoxidase (Homo sapiens, UniProt P05164); assay: MPO Peroxidation Assay (Amplex Red Assay); format: biochemical; conditions: potency range class, read-out: Amplex Red Assay IC50 value
T1 sequence (P05164 49-745): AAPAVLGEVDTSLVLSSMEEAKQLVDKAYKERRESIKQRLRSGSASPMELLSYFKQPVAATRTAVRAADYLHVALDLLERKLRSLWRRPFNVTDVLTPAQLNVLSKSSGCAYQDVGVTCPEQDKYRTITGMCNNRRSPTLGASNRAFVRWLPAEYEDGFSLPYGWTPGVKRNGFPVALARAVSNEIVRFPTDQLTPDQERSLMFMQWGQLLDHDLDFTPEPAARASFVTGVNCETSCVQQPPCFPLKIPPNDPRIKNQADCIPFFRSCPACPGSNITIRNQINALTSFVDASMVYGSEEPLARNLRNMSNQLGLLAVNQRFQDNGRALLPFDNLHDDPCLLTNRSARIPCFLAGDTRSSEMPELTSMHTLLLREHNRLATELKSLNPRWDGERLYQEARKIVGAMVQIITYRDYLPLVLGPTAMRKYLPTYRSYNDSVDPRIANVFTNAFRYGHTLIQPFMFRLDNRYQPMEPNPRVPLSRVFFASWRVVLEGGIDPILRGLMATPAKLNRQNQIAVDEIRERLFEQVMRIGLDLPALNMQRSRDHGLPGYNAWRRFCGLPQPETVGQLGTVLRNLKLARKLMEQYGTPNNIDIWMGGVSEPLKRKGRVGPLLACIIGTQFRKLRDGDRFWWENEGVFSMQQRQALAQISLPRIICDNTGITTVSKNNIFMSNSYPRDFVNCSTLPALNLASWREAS

myeloperoxidase [2] = molecular target: T1, myeloperoxidase; assay: MPO Chlorination Assay (APF Assay); format: biochemical; conditions: potency range class, read-out: APF Assay IC50 value

| Structure (SMILES) | IC50 (myeloperoxidase [1]) | IC50 (myeloperoxidase [2]) |
| --- | --- | --- |
| Nc1cc([C@H](Cc2nc3ccccc3s2)c2ccccc2)c2nn[nH]c2n1 [Example 239, (R)-7-(2-(benzo[d]thiazol-2-yl)-1-phenylethyl)-3H-[1,2,3]triazolo[4,5-b]pyridin-5-amine] | 1 to 100 nM | 101 to 999 nM |
| Nc1cc([C@H](Cc2nc3ccc(-c4ccccc4)cc3c(=O)[nH]2)c2ccccc2)c2nn[nH]c2n1 [Example 241] | 101 to 999 nM | 1 to 100 nM |
| Nc1cc([C@H](Cc2nc3ccc(-c4ccccc4)cc3s2)c2ccccc2)c2nn[nH]c2n1 [Example 242, (R)-7-(1-phenyl-2-(6-phenylbenzo[d]thiazol-2-yl)ethyl)-3H-[1,2,3]triazolo [4,5-b]pyridin-5-amine] | 1 to 100 nM | 1 to 100 nM |
| CN(C)C(=O)c1cccc(-c2cccc3[nH]c(C[C@H](c4ccccc4)c4cc(N)nc5[nH]nnc45)nc23)c1 [Example 243, (R)-3-(2-(2-(5-amino-3H-[1,2,3]triazolo [4,5-b]pyridin-7-yl)-2-phenylethyl)-1H-benzo[d]imidazol-4-yl)-N,N-dimethylbenzamide] | 101 to 999 nM | 1 to 100 nM |
| Nc1cc([C@H](Cc2nc3c(-c4ccccc4)cc(Cl)cc3[nH]2)c2ccccc2)c2nn[nH]c2n1 [Example 244, (R)-7-(2-(6-chloro-4-phenyl-1H-benzo[d]imidazol-2-yl)-1-phenylethyl)-3H-[1,2,3]triazolo[4,5-b]pyridin-5-amine] | 101 to 999 nM | 1 to 100 nM |
| Nc1cc([C@H](Cc2nc3c(-c4ccccc4)c(F)c(F)cc3[nH]2)c2ccccc2)c2nn[nH]c2n1 [Example 246, (R)-7-(2-(5,6-difluoro-4-phenyl-1H-benzo [d]imidazol-2-yl)-1-phenylethyl)-3H-[1,2,3]triazolo[4,5-b] pyridin-5-amine] | 101 to 999 nM | 1 to 100 nM |
| Nc1cc([C@H](Cc2nc3c(-c4cccc(Cl)c4)cccc3[nH]2)c2ccccc2)c2nn[nH]c2n1 [Example 247, (R)-7-(2-(4-(3-chlorophenyl)-1H-benzo[d]imidazol-2-yl)-1-phenylethyl)-3H-[1,2,3]triazolo [4,5-b]pyridin-5-amine] | 101 to 999 nM | 1 to 100 nM |
| Nc1cc([C@H](Cc2nc3c(-c4ccccc4)cc(C(F)(F)F)cc3[nH]2)c2ccccc2)c2nn[nH]c2n1 [Example 248, (R)-7-(1-phenyl-2-(4-phenyl-6-(trifluoromethyl)-1H-benzo [d]imidazol-2-yl)ethyl)-3H-[1,2,3] triazolo[4,5-b] pyridin-5-amine] | 101 to 999 nM | 1 to 100 nM |
| NC(=O)c1ccc(-c2cccc3[nH]c(C[C@H](c4ccccc4)c4cc(N)nc5[nH]nnc45)nc23)cc1 [Example 249, (R)-4-(2-(2-(5-amino-3H-[1,2,3]triazolo [4,5-b]pyridin-7-yl)-2-phenylethyl)-1H-benzo[d]imidazol-4-yl)benzamide] | 101 to 999 nM | 1 to 100 nM |
| Nc1cc([C@H](Cc2nc3ccc(-c4ccc(Cl)cc4)cc3[nH]2)c2ccccc2)c2nn[nH]c2n1 [Example 250] | 101 to 999 nM | 1 to 100 nM |
| Nc1cc([C@H](Cc2nc3c(-c4cccc(C5CC5)c4)cccc3[nH]2)c2ccccc2)c2nn[nH]c2n1 [Example 251, (R)-7-(2-(4-(3-cyclopropylphenyl)-1H-benzo[d]imidazol-2-yl)-1-phenylethyl)-3H-[1,2,3]triazolo [4,5-b]pyridin-5-amine] | 1000 to 10000 nM | 1 to 100 nM |
| N#Cc1ccc(-c2ccc3nc(C[C@H](c4ccccc4)c4cc(N)nc5[nH]nnc45)[nH]c3c2)cc1 [Example 255, (R)-4-(2-(2-(5-amino-3H-[1,2,3]triazolo[4,5-b]pyridin-7-yl)-2-phenylethyl)-1H-benzo[d]imidazol-6-yl)benzonitrile] | 1000 to 10000 nM | 1 to 100 nM |
| Cn1c(C[C@H](c2ccccc2)c2cc(N)nc3[nH]nnc23)nc2c(-c3ccccc3)cccc21 [Example 262, (R)-7-(2-(1-methyl-4-phenyl-1H-benzo[d]imidazol-2-yl)-1-phenylethyl)-3H-[1,2,3]triazolo [4,5-b]pyridin-5-amine] | 1000 to 10000 nM | 1000 to 10000 nM |
| Nc1cc([C@H](Cc2nc3ccc(Br)cc3s2)c2ccccc2)c2nn[nH]c2n1 [Example 263, (R)-7-(2-(6-bromobenzo [d]thiazol-2-yl)-1-phenylethyl)-3H-[1,2,3]triazolo[4,5-b] pyridin-5-amine] | 101 to 999 nM | 101 to 999 nM |

Results, then the compound that gave them:

| IC50 (myeloperoxidase [1]) | IC50 (myeloperoxidase [2]) | Structure (SMILES) |
| --- | --- | --- |
| 101 to 999 nM | 101 to 999 nM | Nc1cc([C@H](Cc2nc3ccccc3o2)c2ccccc2)c2nn[nH]c2n1 [Example 240, (R)-7-(2-(benzo[d]oxazol-2-yl)-1-phenylethyl)-3H-[1,2,3]triazolo[4,5-b]pyridin-5-amine] |
| 101 to 999 nM | 1 to 100 nM | NC(=O)c1cccc(-c2cccc3[nH]c(C[C@H](c4ccccc4)c4cc(N)nc5[nH]nnc45)nc23)c1 [Example 245, (R)-3-(2-(2-(5-amino-3H-[1,2,3]triazolo [4,5-b]pyridin-7-yl)-2-phenylethyl)-1H-benzo[d]imidazol-4-yl)benzamide] |
| 1000 to 10000 nM | 1 to 100 nM | N#Cc1cccc(-c2cccc3[nH]c(C[C@H](c4ccccc4)c4cc(N)nc5[nH]nnc45)nc23)c1 [Example 252, (R)-3-(2-(2-(5-amino-3H-[1,2,3]triazolo [4,5-b]pyridin-7-yl)-2-phenylethyl)-1H-benzo[d]imidazol-4-yl)benzonitrile] |
| 1000 to 10000 nM | 1 to 100 nM | Nc1cc([C@H](Cc2nc3c(-c4ccc(Cl)cc4)cccc3[nH]2)c2ccccc2)c2nn[nH]c2n1 [Example 253, (R)-7-(2-(4-(4-chlorophenyl)-1H-benzo[d]imidazol-2-yl)-1-phenylethyl)-3H-[1,2,3]triazolo [4,5-b] pyridin-5-amine] |
| 1000 to 10000 nM | 1 to 100 nM | N#Cc1cc(-c2ccccc2)c2nc(C[C@H](c3ccccc3)c3cc(N)nc4[nH]nnc34)[nH]c2c1 [Example 254, (R)-2-(2-(5-amino-3H-[1,2,3]triazolo [4,5-b]pyridin-7-yl)-2-phenylethyl)-4-phenyl-1H-benzo[d]imidazole-6-carbonitrile] |
| 101 to 999 nM | 101 to 999 nM | Nc1cc([C@H](Cc2nc3ccc(-c4ccccc4)cc3[nH]2)c2ccccc2)c2nn[nH]c2n1 [Example 256, (R)-7-(1-phenyl-2-(6-phenyl-1H-benzo[d]imidazol-2-yl)ethyl)-3H-[1,2,3]triazolo [4,5-b]pyridin-5-amine] |
| 1000 to 10000 nM | 101 to 999 nM | Cn1c(C[C@H](c2ccccc2)c2cc(N)nc3[nH]nnc23)nc2ccc(-c3ccccc3)cc21 [Example 257, (R)-7-(2-(1-methyl-6-phenyl-1H-benzo[d]imidazol-2-yl)-1-phenylethyl)-3H-[1,2,3]triazolo[4,5-b] pyridin-5-amine] |
| 1000 to 10000 nM | 101 to 999 nM | Cn1c(C[C@H](c2ccccc2)c2cc(N)nc3[nH]nnc23)nc2cc(-c3ccccc3)ccc21 [Example 258, (R)-7-(2-(1-methyl-5-phenyl-1H-benzo[d]imidazol-2-yl)-1-phenylethyl)-3H-[1,2,3]triazolo[4,5-b] pyridin-5-amine] |
| 101 to 999 nM | 101 to 999 nM | Nc1cc([C@H](Cc2nc3cc(F)c(-c4ccccc4)cc3[nH]2)c2ccccc2)c2nn[nH]c2n1 [Example 259, (R)-7-(2-(5-fluoro-6-phenyl-1H-benzo[d]imidazol-2-yl)-1-phenylethyl)-3H-[1,2,3]triazolo[4,5-b] pyridin-5-amine] |
| 1000 to 10000 nM | 101 to 999 nM | Nc1cc([C@H](Cc2nc3c(-c4ccccc4Cl)cccc3[nH]2)c2ccccc2)c2nn[nH]c2n1 [Example 260, (R)-7-(2-(4-(2-chlorophenyl)-1H-benzo[d]imidazol-2-yl)-1-phenylethyl)-3H-[1,2,3]triazolo [4,5-b]pyridin-5-amine] |
| 101 to 999 nM | 1000 to 10000 nM | Nc1cc([C@H](Cc2nc3ccccc3[nH]2)c2ccccc2)c2nn[nH]c2n1 [Example 261, (R)-7-(2-(1H-benzo [d]imidazol-2-yl)-1-phenylethyl)-3H-[1,2,3]triazolo[4,5-b] pyridin-5-amine] |
